Literature values as cited in US20060198830A1, “Ubiquinone composition and a container for its convenient transport and storage” (priority 2005, published 2006).

Settings: administration of 300-1200 mg/day of CoQ10

plasma CoQ10 concentrations: 3 to 4 µg/mL
Compound: COC1=C(OC)C(=O)C(C/C=C(\C)CC/C=C(\C)CC/C=C(\C)CC/C=C(\C)CC/C=C(\C)CC/C=C(\C)CC/C=C(\C)CC/C=C(\C)CC/C=C(\C)CCC=C(C)C)=C(C)C1=O [CoQ10, Ubiquinone]
